Assay results as given in PMC7536148, “Interactions of zearalanone, α-zearalanol, β-zearalanol, zearalenone-14-sulfate, and zearalenone-14-glucoside with serum albumin” (Mycotoxin Research, 2020).
Values joined by “and” are separate entries in the source; they are usually repeats but may differ in a detail not shown here. Equal values may be shown once. Where a name gives a salt, the structure may show the parent alone. Read-outs that look alike come from different tables or passages of the source. Marks after values point to notes of the source that are not given here.

Columns and labels:
HSA = target: T1, HSA (Homo sapiens, UniProt P02768); assay: High-performance affinity chromatography on HSA-coated column; format: binding; settings: Chiralpak HSA column, isopropanol / 0.01 mol/L ammonium acetate pH 7.0 (15:85 v/v%), 0.5 mL/min, room temperature
T1 construct: purchased Daicel Chiralpak HSA, 50 × 3.0 mm, 5 μm
Procedure: HPAC was performed with a HSA-coated column (Faisal et al. [2018]). The HPLC system (Jasco, Tokyo, Japan) used for the analysis included an autosampler (AS-4050), a binary pump (PU-4180), and a diode-array detector (MD-4017). A 5-μL volume of samples (ZAN: 200 μmol/L; ZEN, α-ZAL, β-ZAL, and Z14S: 100 μmol/L; Z14G: 50 μmol/L) was driven through a pre-column filter (Waters, Milford, MA, USA) linked to an immobilized HSA-coated HPAC column (Chiralpak® HSA, 50 × 3.0 mm, 5 μm; Daicel, Tokyo, Japan). The isocratic elution was performed with 0.5-mL/min flow rate at room temperature. The mobile phase contained isopropanol (HPLC grade; VWR, Debrecen, Hungary) and 0.01 mol/L pH 7.0 ammonium acetate buffer (15:85 v/v%). Mycotoxins were detected at 235 nm, and chromatograms were evaluated with ChromNAV software.

[1] = tested on: human, bovine, porcine, and rat serum albumins; assay: Fluorescence quenching, statements on all albumins tested together; format: binding; settings: albumins 2 μmol/L, mycotoxin 0-10 μmol/L, PBS, λex = 295 nm
Procedure: (§1) Fluorescence spectroscopic measurements were carried out employing a Hitachi F-4500 fluorescence spectrophotometer (Hitachi, Tokyo, Japan) to investigate the effect of increasing mycotoxin concentrations on the fluorescence signal of albumins as well as on the emission spectrum of warfarin-HSA complex. Our studies were executed in phosphate-buffered saline (PBS, pH 7.4; 8.00 g/L NaCl, 0.20 g/L KCl, 1.81 g/L Na2HPO4 × 2H2O, 0.24 g/L KH2PO4) at room temperature, in the presence of air.
(§2) For spectral correction of fluorescence emission intensities, absorption spectra of mycotoxins were also recorded applying a Jasco-V730 spectrophotometer (Jasco, Tokyo, Japan). The inner-filter effect of mycotoxins was corrected as described previously (Hu and Liu [2015]; Faisal et al. [2018]):1 Icor=Iobs×e^Aex+Aem/2 where Icor and Iobs indicate the corrected and observed fluorescence emission intensities, respectively. Aex and Aem denote the absorbance of mycotoxins at the excitation and emission wavelengths used, respectively.
To investigate the stability of mycotoxin-albumin complexes, mycotoxin-induced quenching effects on the intrinsic fluorescence of albumins were tested. The emission signal of albumins (2 μmol/L; λex = 295 nm; […]) were measured in the presence of increasing concentrations of mycotoxins (0.0, 1.0, 2.0, 3.0, 4.0, 5.0, 6.0, 7.0, 8.0, 9.0, and 10.0 μmol/L). […]

CaCo-2 cells = tested on: CaCo-2 cells; design: method as in Cirlini et al. 2016; settings: ref Cirlini et al. 2016; cited from earlier work
warfarin-HSA complex [2] = target: T2, warfarin-HSA complex (Homo sapiens, UniProt P02768); assay: Effect of mycotoxins on warfarin-HSA interaction (warfarin fluorescence); format: binding; settings: warfarin 1 μmol/L, HSA 3.5 μmol/L, mycotoxin 0-15 μmol/L, PBS pH 7.4, λex = 317 nm
T2 construct: purchased Sigma-Aldrich
Procedure: as §1, §2
To test the effects of ZEN metabolites on warfarin-HSA interaction, our previously reported method was applied (Faisal et al. [2018]; Fliszár-Nyúl et al. [2019]). In this experiment, the fluorescence emission signal of warfarin (1 μmol/L; λex = 317 nm, λem = 379 nm) was examined in the presence of HSA (3.5 μmol/L) without and with mycotoxins (0, 1, 2, 3, 4, 5, 6, 8, 10, and 15 μmol/L) in PBS (pH 7.4). Under these conditions, approximately 70% of warfarin is albumin-bound.

[3] = pigs, cited from earlier work; for intestinal hydrolysis to ZEN after oral administration: ref Binder et al. 2017
[4] = design: method as in Sun et al. 2019; settings: rats, ref Sun et al. 2019; cited from earlier work
estrogen receptors = settings: cited from earlier work; for xenoestrogenic effects compared with ZEN: ref EFSA 2017, Fleck et al. 2017, Frizzell et al. 2011, Filannino et al. 2011
[5] = target: T3, human serum albumin (HSA) (Homo sapiens, UniProt P02768); assay: Fluorescence quenching of human serum albumin by mycotoxins; format: binding; settings: for logKSV ± SEM (Stern-Volmer quenching constant): HSA 2 μmol/L, PBS pH 7.4, room temperature, λex = 295 nm, λem = 340 nm; for Kd: logK ± SEM (binding constant of mycotoxin-albumin complex), HSA, quenching data, Hyperquad2006 fitting, 1:1 stoichiometry, PBS pH 7.4
T3 construct: purchased Sigma-Aldrich
Procedure: as §1, §2
(§3) To investigate the stability of mycotoxin-albumin complexes, mycotoxin-induced quenching effects on the intrinsic fluorescence of albumins were tested. The emission signal of albumins (2 μmol/L; λex = 295 nm; […]) were measured in the presence of increasing concentrations of mycotoxins (0.0, 1.0, 2.0, 3.0, 4.0, 5.0, 6.0, 7.0, 8.0, 9.0, and 10.0 μmol/L). Stern-Volmer quenching constants (KSV; unit: L/mol) were determined employing the Stern-Volmer equation (Ma et al. [2018]; Faisal et al. [2018]):2 I0/I=1+KSV×Q where Q is the concentration of the mycotoxin (unit: mol/L). I0 and I are the fluorescence emission signal of albumin in the absence and presence of mycotoxins, respectively. Z14S and Z14G exert fluorescence; their excitation and emission spectra, under different environmental conditions, have been reported previously (Faisal et al. [2019], [2020]).
(§4) Binding constants (K; unit: L/mol) of mycotoxin-albumin complexes were determined by nonlinear fitting employing Hyperquad2006 software, as described in details in our previous studies (Sueck et al. [2018]; Faisal et al. [2018]).

rat serum albumin (RSA) [6] = target: T4, rat serum albumin (RSA) (Rattus norvegicus, UniProt P02770); assay: Fluorescence quenching of rat serum albumin by mycotoxins; format: binding; settings: for logKSV ± SEM (Stern-Volmer quenching constant): RSA 2 μmol/L, PBS pH 7.4, room temperature, λex = 295 nm, λem = 340 nm
T4 construct: purchased Sigma-Aldrich
Procedure: as §1, §2, §3, §4

[7] = target: T5, bovine serum albumin (BSA) (Bos taurus, UniProt P02769); assay: Fluorescence quenching of bovine serum albumin by mycotoxins; format: binding; settings: for logKSV ± SEM (Stern-Volmer quenching constant): BSA 2 μmol/L, PBS pH 7.4, room temperature, λex = 295 nm, λem = 340 nm
T5 construct: purchased Sigma-Aldrich
Procedure: as §1, §2, §3, §4

[8] = target: T6, porcine serum albumin (PSA) (Sus scrofa, UniProt P08835); assay: Fluorescence quenching of porcine serum albumin by mycotoxins; format: binding; settings: for logKSV ± SEM (Stern-Volmer quenching constant): PSA 2 μmol/L, PBS pH 7.4, room temperature, λex = 295 nm, λem = 340 nm
T6 construct: purchased Sigma-Aldrich
Procedure: as §1, §2, §3, §4

warfarin-HSA complex [9] = target: T2, warfarin-HSA complex; design: method as in Poór et al. 2017; Faisal et al. 2018; settings: allosteric interaction with Sudlow's site I ligand; ref Poór et al. 2017; Faisal et al. 2018; cited from earlier work
[10] = design: method as in EFSA 2014; settings: ZEN equivalents for ZEN and its modified forms jointly; ref EFSA 2014; cited from earlier work
[11] = design: method as in Rai et al. 2019; settings: ref Rai et al. 2019; cited from earlier work
[12] = target: T6, porcine serum albumin (PSA); design: method as in Faisal et al. (2018); settings: ref Faisal et al. (2018); cited from earlier work
[13] = target: T5, bovine serum albumin (BSA); design: method as in Faisal et al. (2018); settings: ref Faisal et al. (2018); cited from earlier work
rat serum albumin (RSA) [14] = target: T4, rat serum albumin (RSA); design: method as in Faisal et al. (2018); settings: ref Faisal et al. (2018); cited from earlier work
[15] = target: T3, human serum albumin (HSA); design: method as in Faisal et al. (2018); settings: ref Faisal et al. (2018); cited from earlier work
[16] = from binding constants of Table 2

T6 sequence (P08835 25-607): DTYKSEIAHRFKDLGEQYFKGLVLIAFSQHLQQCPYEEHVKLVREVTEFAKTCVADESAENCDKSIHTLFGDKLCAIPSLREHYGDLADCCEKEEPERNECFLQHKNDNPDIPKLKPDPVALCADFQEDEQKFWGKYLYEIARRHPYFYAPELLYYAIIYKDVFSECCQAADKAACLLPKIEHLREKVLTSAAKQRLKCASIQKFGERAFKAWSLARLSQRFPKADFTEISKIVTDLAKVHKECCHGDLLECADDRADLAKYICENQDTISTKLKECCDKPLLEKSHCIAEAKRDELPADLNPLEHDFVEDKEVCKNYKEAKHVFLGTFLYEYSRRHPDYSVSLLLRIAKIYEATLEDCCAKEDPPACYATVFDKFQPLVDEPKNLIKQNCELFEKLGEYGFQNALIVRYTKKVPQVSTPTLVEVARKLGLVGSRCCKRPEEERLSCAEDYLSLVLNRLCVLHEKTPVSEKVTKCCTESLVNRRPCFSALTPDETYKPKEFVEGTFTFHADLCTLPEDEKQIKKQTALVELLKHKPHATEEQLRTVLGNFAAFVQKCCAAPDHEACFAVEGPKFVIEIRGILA
T4 sequence (P02770 25-608): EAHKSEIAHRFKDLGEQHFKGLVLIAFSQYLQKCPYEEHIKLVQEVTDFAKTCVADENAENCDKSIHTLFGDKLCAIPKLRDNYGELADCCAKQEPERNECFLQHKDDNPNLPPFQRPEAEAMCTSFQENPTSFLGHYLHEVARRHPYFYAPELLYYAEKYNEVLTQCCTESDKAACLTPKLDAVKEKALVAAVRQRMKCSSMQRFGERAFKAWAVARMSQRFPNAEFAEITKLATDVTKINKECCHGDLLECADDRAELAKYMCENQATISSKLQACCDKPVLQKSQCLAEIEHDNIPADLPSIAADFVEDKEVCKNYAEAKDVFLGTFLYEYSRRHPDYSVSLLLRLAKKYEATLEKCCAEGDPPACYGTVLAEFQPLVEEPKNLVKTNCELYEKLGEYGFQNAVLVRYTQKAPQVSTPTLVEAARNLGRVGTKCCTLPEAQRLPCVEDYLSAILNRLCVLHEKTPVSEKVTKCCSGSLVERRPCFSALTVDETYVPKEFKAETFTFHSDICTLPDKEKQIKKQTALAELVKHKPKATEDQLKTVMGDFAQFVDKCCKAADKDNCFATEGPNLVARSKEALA
T5 sequence (P02769 25-607): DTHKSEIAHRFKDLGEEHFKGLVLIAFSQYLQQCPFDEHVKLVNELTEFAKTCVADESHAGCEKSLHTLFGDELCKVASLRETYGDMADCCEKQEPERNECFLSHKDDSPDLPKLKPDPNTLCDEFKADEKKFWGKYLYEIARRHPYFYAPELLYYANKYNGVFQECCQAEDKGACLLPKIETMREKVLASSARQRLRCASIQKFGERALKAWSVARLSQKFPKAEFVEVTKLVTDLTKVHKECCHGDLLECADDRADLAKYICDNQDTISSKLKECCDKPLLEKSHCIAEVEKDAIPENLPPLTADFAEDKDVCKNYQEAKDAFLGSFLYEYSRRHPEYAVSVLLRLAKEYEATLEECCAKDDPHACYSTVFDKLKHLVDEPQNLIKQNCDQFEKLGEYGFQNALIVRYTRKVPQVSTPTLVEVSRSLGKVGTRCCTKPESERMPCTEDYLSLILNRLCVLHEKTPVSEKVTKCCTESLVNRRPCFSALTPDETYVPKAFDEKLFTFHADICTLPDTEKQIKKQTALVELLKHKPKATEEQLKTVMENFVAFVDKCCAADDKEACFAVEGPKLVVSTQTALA
T1 sequence (P02768 25-609): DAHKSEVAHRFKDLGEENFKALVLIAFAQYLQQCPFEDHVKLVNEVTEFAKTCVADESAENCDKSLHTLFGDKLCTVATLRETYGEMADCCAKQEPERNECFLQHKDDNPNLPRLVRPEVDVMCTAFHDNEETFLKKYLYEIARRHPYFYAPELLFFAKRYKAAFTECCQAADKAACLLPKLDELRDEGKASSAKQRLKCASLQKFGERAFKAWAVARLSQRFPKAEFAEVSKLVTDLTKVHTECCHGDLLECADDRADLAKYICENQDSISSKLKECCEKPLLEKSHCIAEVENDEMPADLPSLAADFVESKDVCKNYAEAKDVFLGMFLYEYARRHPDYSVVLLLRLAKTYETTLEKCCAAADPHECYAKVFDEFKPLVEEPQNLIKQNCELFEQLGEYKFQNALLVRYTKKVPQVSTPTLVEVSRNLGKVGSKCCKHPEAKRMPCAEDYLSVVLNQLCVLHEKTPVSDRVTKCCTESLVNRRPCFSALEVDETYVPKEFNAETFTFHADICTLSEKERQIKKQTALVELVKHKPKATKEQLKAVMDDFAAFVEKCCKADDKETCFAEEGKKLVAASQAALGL
T2 sequence (P02768 25-609, one chain of several): as the sequence (P02768 25-609) above
T3 sequence (P02768 25-609): as above

SMILES	retention time (tR) from HSA-HPAC affinity column (HSA)	effect on fluorescence emission signal of warfarin at 379 nm (warfarin-HSA interaction) (warfarin-HSA complex [2])	logKSV ± SEM (Stern-Volmer quenching constant) [5] [L/mol]	Kd [5]	Kd (rat serum albumin (RSA) [6]) [µM]	logKSV ± SEM (Stern-Volmer quenching constant) (rat serum albumin (RSA) [6]) [L/mol]	Kd [7] [µM]	logKSV ± SEM (Stern-Volmer quenching constant) [7] [L/mol]	Kd [8] [µM]	logKSV ± SEM (Stern-Volmer quenching constant) [8] [L/mol]	effect on binding affinity of warfarin towards HSA (warfarin-HSA complex [9])	further results
C[C@H]1CCCC(=O)CCC/C=C/c2cc(O[C@@H]3O[C@H](CO)[C@@H](O)[C@H](O)[C@H]3O)cc(O)c2C(=O)O1 [Z14G, Zearalenone-14-O-β-D-glucoside]	1.7 min and 1.650 min	did not affect the fluorescence at 379 nm	–	–	–	–	–	–	–	–	–	effect on the emission signals of albumins (quenching) [1]: did not affect the emission signals of albumins; absorption in CaCo-2 cell model (CaCo-2 cells): considerably lower compared with ZEN; fraction of the orally administered compound absorbed ([3]; oral, ref Catteuw et al. 2019): approximately 61%; intestinal hydrolysis to ZEN after oral administration [3]: complete intestinal hydrolysis to ZEN; plasma concentrations after oral administration [4]: low plasma concentrations
C[C@H]1CCCC(=O)CCC/C=C/c2cc(OS(=O)(=O)O)cc(O)c2C(=O)O1 [Z14S, Zearalenone-14-sulfate ammonium salt]	23.3 min and 23.293 min	did not affect the fluorescence at 379 nm	4.64 ± 0.03	20 µM and 19.5 µM	1.17	5.70 ± 0.02	3.72	5.32 ± 0.02	7.59	5.04 ± 0.02	–	lower estrogenicity vs. ZEN (estrogen receptors; in vitro, ref Drzymala et al. 2015): 100 fold; difference in binding affinity, RSA and HSA complex (rat serum albumin (RSA) [6]; [16]): 16 fold; intestinal hydrolysis to ZEN after oral administration [3]: complete intestinal hydrolysis to ZEN
C[C@H]1CCCC(=O)CCCCCc2cc(O)cc(O)c2C(=O)O1 [ZAN, zearalanone]	8.0 min and 8.017 min	considerably increased the emission signal of warfarin	4.52 ± 0.04	26.3 µM	7.59	5.00 ± 0.03	–	4.41 ± 0.04	107	3.97 ± 0.06	–	difference in binding affinity, RSA vs. PSA complex (rat serum albumin (RSA) [6]; [16]): 14 fold; Kd ([7]; BSA, quenching data, Hyperquad2006 fitting, 1:1 stoichiometry, PBS pH 7.4, read-out: logK ± SEM (binding constant of mycotoxin-albumin complex) (converted)): 30.9 µM
C[C@H]1CCC[C@H](O)CCCCCc2cc(O)cc(O)c2C(=O)O1 [α-ZAL, α-zearalanol]	5.3 min and 5.313 min	considerably increased the emission signal of warfarin	4.50 ± 0.02	28.2 µM	4.9	5.21 ± 0.00	45.7	4.20 ± 0.05	41.7	4.30 ± 0.05	–	xenoestrogenic effects compared with ZEN (estrogen receptors): considerably higher xenoestrogenic effects than ZEN; difference in binding affinity, RSA vs. BSA complex (rat serum albumin (RSA) [6]; [16]): 9 fold
C[C@H]1CCC[C@@H](O)CCC/C=C/c2cc(O)cc(O)c2C(=O)O1 [β-ZEL, β-zearalenol]	–	–	–	–	–	–	–	–	–	–	decrease	–
C[C@H]1CCC[C@@H](O)CCCCCc2cc(O)cc(O)c2C(=O)O1 [β-ZAL, β-zearalanol]	3.1 min and 3.053 min	did not affect the fluorescence at 379 nm	4.34 ± 0.04	42.7 µM	2.45	5.43 ± 0.01	75.9	3.88 ± 0.06	70.8	4.13 ± 0.09	–	difference in binding affinity, RSA vs. BSA complex (rat serum albumin (RSA) [6]; [16]): 30 fold
C[C@H]1CCCC(=O)CCC/C=C/c2cc(O)cc(O)c2C(=O)O1 [ZEN, Zearalenone]	12.3 min and 12.267 min	–	–	–	–	–	–	–	–	–	increase	human tolerable daily intake (TDI) [10]: 0.25 μg/kg body weight per day; IARC carcinogen classification [11]: group 3 carcinogen; logK ± SEM (binding constant of mycotoxin-albumin complex) [12]: 4.57 ± 0.01^a L/mol; logKSV ± SEM (Stern-Volmer quenching constant) [12]: 4.56 ± 0.02^a L/mol; logK ± SEM (binding constant of mycotoxin-albumin complex) [13]: 4.78 ± 0.01^a L/mol; logKSV ± SEM (Stern-Volmer quenching constant) [13]: 4.81 ± 0.01^a L/mol; logK ± SEM (binding constant of mycotoxin-albumin complex) (rat serum albumin (RSA) [14]): 5.42 ± 0.00^a L/mol; logKSV ± SEM (Stern-Volmer quenching constant) (rat serum albumin (RSA) [14]): 5.50 ± 0.01^a L/mol; logK ± SEM (binding constant of mycotoxin-albumin complex) [15]: 5.1 L/mol and 5.09 ± 0.01^a L/mol; logKSV ± SEM (Stern-Volmer quenching constant) [15]: 5.09 ± 0.01^a L/mol
C[C@H]1CCC[C@H](O)CCC/C=C/c2cc(O)cc(O)c2C(=O)O1 [α-ZEL, α-zearalenol, reference compound]	–	–	–	–	–	–	–	–	–	–	increase	xenoestrogenic effects compared with ZEN (estrogen receptors): considerably higher xenoestrogenic effects than ZEN
